According to PMC11944514, “Dengue Virus Inhibitors as Potential Broad-Spectrum Flavivirus Inhibitors” (Pharmaceuticals, 2025):
Entries after “also recorded” stand apart in the source; their conditions may differ.

Columns and labels:
ZIKV-Nanoluc replicon = assay type: cell-based
TBEV-Nanoluc replicon = assay type: cell-based
DENV2-Nanoluc = assay: microbe, parasite or virus in culture; assay type: cell-based; conditions: for EC50: Dengue virus, DENV2, Vero C1008, read-out: DENV2 EC50, μM
DENV2-Nanoluc replicon = assay type: cell-based
[1] = xCELLigence real-time cytotoxicity assay (RTCA), CC50; assay type: cell-based; conditions: African green monkey, Vero E6 cells, 24 h of exposure
Protocol: As compounds C1, C2, and C3 were relatively toxic (Figure 2A), we determined the selectivity index (SI) of the identified potential broad-spectrum flavivirus inhibitors. As the WST-1 assay tends to underestimate the toxic effect and is unable to detect cytostatic effects, the CC50 of the perspective compounds was measured using a more sensitive xCELLigence real-time cytotoxicity assay (RTCA). […] The full xCELLigence RTCA data are provided in the Supporting Information section (Figures S2 and S3). Thereafter, for each compound, the SI was calculated as a ratio of the CC50 of a compound against its EC50 [36].
Vero E6 cells were seeded on a 16-well E-plate (ACEA Biosciences, Inc., San Diego, CA, USA ) at a density of 5 × 10^3 cells/well and allowed to adhere overnight. On the next day, the studied compounds were added at the final concentrations ranging from 0.078 μM to 5 μM with a two-fold dilution step for compounds C1, C2, and C3, and at the final concentrations ranging from 1.56 μM to 50 μM with a two-fold dilution step for compounds C5 and C6; 0.01% DMSO was used as a solvent control. The cells were incubated for 5 days, and the signals between the electrodes (impedance) were recorded using an RTCA xCELLigence machine (Agilent Technologies, Inc., Santa Clara, CA, USA). […] The CC50 values were calculated using GraphPad Prism 10.0 for Windows, GraphPad Software, v. 10.4.1, Boston, MA, USA, www.graphpad.com (accessed on 16 February 2025).

ZIKV = test system: ZIKV; parameters: method as in PMID 32452420; conditions: Vero E6 cells; read-out: EC50, inhibition of ZIKV replication; cited from earlier work
KUNV-Nanoluc = assay: organism not typed; assay type: cell-based; conditions: for EC50: Vero C1008, read-out: KUNV EC50, μM
KUNV-Nanoluc replicon = assay type: cell-based
WNV, DENV, and YFV = conditions: cited from earlier work
TBEV-Nanoluc = assay: microbe, parasite or virus in culture; assay type: cell-based; conditions: for EC50: Tick-borne encephalitis virus, Vero C1008, read-out: TBEV EC50, μM
ZIKV-Nanoluc = assay: microbe, parasite or virus in culture; assay type: cell-based; conditions: for EC50: Zika virus, Vero C1008, read-out: ZIKV EC50, μM
U2OS cells [2] = test system: U2OS cells; parameters: method as in PMID 31609477; conditions: previously reported; read-out: 50% cytotoxic concentration (CC50) against U2OS cells; cited from earlier work
DENV-2-NGC = test system: DENV-2-NGC; parameters: method as in PMID 17360676; conditions: Vero E6 cells; read-out: EC50, inhibition of DENV-2-NGC activity; cited from earlier work
U2OS cells [3] = assay: WST-1 cell viability assay, U2OS; assay type: cell-based, human; conditions: 48 h of exposure
Protocol: (§1) Vero E6 or U2OS cells were seeded on the 96-well plate at a density of 1 × 10^4 cells/well and were allowed to adhere overnight. Next day, the cells were treated with the studied compounds at concentrations ranging from 1 to 100 μM with a ten-fold dilution step. As a solvent control, 0.01% DMSO (Sigma, St. Louis, MO, USA) was used. After 48 h of exposure, 10 μL of WST-1 (10 mg/mL) cell proliferation reagent (Roche, Cat. No. 11644807001) was added to each well, and plates were incubated at 37 °C, 5% CO2 for 2 h. The optical density was then measured at 450 nm using an Epoch Microplate Spectrophotometer (BioTek Instruments, Inc., Winooski, VT, USA). Four independent experiments were carried out in triplicates.

Vero E6 cells [4] = assay: WST-1 cell viability assay, Vero E6; assay type: cell-based, African green monkey; conditions: Vero E6, 48 h of exposure
Protocol: (§2) The cytotoxic effect of all studied compounds was assessed using the WST-1 assay after 48 h of exposure. […] This observation can be explained by the fact that the compound C8 is resazurin, phenoxazine dye, also known as Alamar Blue, which is subject to irreversible metabolic reduction to the resorufin by live mammalian cells. Thus, the cytotoxic effect of this compound cannot be assessed by the WST-1 assay correctly. Therefore, the C8 cytotoxicity was further assessed using the resazurin cell viability assay. This assay allowed us to avoid the interference between the tested compound and dye and obtain more reliable results for colored compounds.
as §1

Vero E6 cells [5] = assay: Resazurin cell viability assay, Vero E6; assay type: cell-based, African green monkey; conditions: Vero E6, 48 h of exposure
Protocol: as §2
Vero E6 cells were seeded on a 96-well plate at a density of 1 × 10^4 cells/well and were allowed to adhere overnight. On the next day, the medium was replaced with a fresh complete growth medium containing the desired compound at final concentrations ranging from 1 μM to 100 μM with a ten-fold dilution step; 0.05% DMSO was used as a solvent control. […] Thereafter, the fluorescence was measured by a Synergy H1 Hybrid Multi-Mode Microplate Reader (BioTek Instruments, Inc., Winooski, VT, USA) using a 540 nm excitation and 590 nm emission filter. […]

SMILES | antiviral effect against ZIKV-Nanoluc replicon (ZIKV-Nanoluc replicon) | antiviral effect against TBEV-Nanoluc replicon (TBEV-Nanoluc replicon) | antiviral effect against DENV2-Nanoluc (initial screening) (DENV2-Nanoluc) | EC50 (DENV2-Nanoluc) [µM] | antiviral effect against DENV2-Nanoluc replicon (DENV2-Nanoluc replicon) | CC50 at 24 h [1] [µM] | antiviral effect against KUNV-Nanoluc (initial screening) (KUNV-Nanoluc) | EC50 (KUNV-Nanoluc) [µM] | antiviral effect against KUNV-Nanoluc replicon (KUNV-Nanoluc replicon) | antiviral effect against TBEV-Nanoluc (initial screening) (TBEV-Nanoluc) | EC50 (TBEV-Nanoluc) [µM] | antiviral effect against ZIKV-Nanoluc (initial screening) (ZIKV-Nanoluc) | EC50 (ZIKV-Nanoluc) [µM] | cytotoxic effect (WST-1 assay) (U2OS cells [3]) | cytotoxic effect (WST-1 assay) (Vero E6 cells [4]) | other results
O[C@H]1[C@H]2c3cc4c(cc3CN3CCC(=C[C@@H]1O)[C@H]23)OCO4 [Compound C1, (1S,17S,18S,19S)-5,7-dioxa-12-azapentacyclo[10.6.1.0^2,^10.0^4,^8.0^15,^19]nonadeca-2(10),3,8,15-tetraene-17,18-diol] | later addition (at 8 h post-transfection) of C1 had a lower antiviral effect compared to earlier | later addition (at 8 h post-transfection) of C1 had a lower antiviral effect compared to earlier | apparent dose-dependent antiviral effects | 0.09 | later addition (at 8 h post-transfection) of C1 had a lower antiviral effect compared to earlier | 1.3 | apparent dose-dependent antiviral effect | 0.17 | later addition (at 8 h post-transfection) of C1 had a lower antiviral effect compared to earlier | the ten-fold increase in concentration did not lead to any significant improvement of the antiviral effect | 0.09 | completely inhibited the ZIKV-Nanoluc replication at the maximum tested concentration | 0.13 | – | – | EC50 (ZIKV): 390 nM; reduction of viral titers of WNV, DENV, and YFV (WNV, DENV, and YFV): 10^2- to 10^4 fold; concentration at which the antiviral effect appeared (TBEV-Nanoluc) (TBEV-Nanoluc): 0.2 µM; concentration at which a statistically significant antiviral effect appeared (ZIKV-Nanoluc) (ZIKV-Nanoluc): 0.2 µM
COc1c(C)c2c(c(O)c1CC=C(C)CCC(=O)O)C(=O)OC2 [Compound C3, 6-(4-hydroxy-6-methoxy-7-methyl-3-oxo-1,3-dihydro-2-benzofuran-5-yl)-4-methylhex-4-enoic acid] | no effect at the maximum non-toxic concentration | no effect at the maximum non-toxic concentration | apparent dose-dependent antiviral effects | 0.12 | no effect at the maximum non-toxic concentration | > 5 | apparent dose-dependent antiviral effect | 0.21 | no effect at the maximum non-toxic concentration | clear dose-dependent antiviral effect | 0.61 | only demonstrated a statistically significant antiviral effect at the maximum tested concentration | 0.53 | extremely toxic for the U2OS cell line even at the lowest micromolar concentration | – | CC50 (U2OS cells [2]): 1660 nM; EC50 (DENV-2-NGC): 5700 nM
Nc1nc(N)c2c(Oc3ccc(F)cc3)cccc2n1 [Compound C4, 5-(4-fluorophenoxy)quinazoline-2,4-diamine] | – | – | negligible inhibition effect at the maximum tested concentration | – | – | > 0.2 | – | – | – | partially inhibit viral replication at the minimal tested concentration without an apparent dose-dependent effect | – | some tendency to decrease the ZIKV-Nanoluc activity at a concentration of 2 μM | – | – | – | –
O=[N+]([O-])c1c(Nc2ccccc2O)cc(Cl)c2nonc12 [Compound C5, 2-[(7-chloro-4-nitro-2,1,3-benzoxadiazol-5-yl)amino]phenol] | – | – | apparent dose-dependent antiviral effects | 2.91 | – | 12.8 | decreased the KUNV-Nanoluc activity only at the maximum tested concentrations | 8.9 | – | clear dose-dependent antiviral effect | 9.88 | at the 50 μM concentration, the virus activity was completely inhibited | 10.4 | – | moderate cytotoxic effect at 50 μM | –
Nc1ncnc2c1ncn2C1OC(CO)C(O)C1O (centres unmarked) [Compound C7, 2-(6-amino-9H-purin-9-yl)-5-(hydroxymethyl)oxolane-3,4-diol] | inactive against all studied flavivirus replicons at the maximal non-toxic concentration | no inhibition of TBEV replication was observed; also recorded: inactive against all studied flavivirus replicons at the maximal non-toxic concentration | – | – | slight inhibition effect against DENV2-Nanoluc if it was added at 1 h post-transfection; also recorded: inactive against all studied flavivirus replicons at the maximal non-toxic concentration | > 50 | slight inhibition effect was observed for compound C7 at the 50 μM concentration | – | inactive against all studied flavivirus replicons at the maximal non-toxic concentration | clear dose-dependent antiviral effect | 8.33 | – | – | more toxic for the U2OS cells at the maximum tested concentration than in the Vero E6 cells | no cytotoxic effect at the maximal tested concentration | –
O=c1ccc2[n+]([O-])c3ccc([O-])cc3oc-2c1.[Na+] [Compound C8, sodium 3-oxo-3H-phenoxazin-10-ium-7,10-bis(olate)] | – | – | negligible inhibition effect at the maximum tested concentration; also recorded: no antiviral effect against DENV2-Nanoluc in the tested concentrations range | – | – | > 50 | – | – | – | partially inhibit viral replication at the minimal tested concentration without an apparent dose-dependent effect | – | – | – | – | inverse dose-dependent effect | cytotoxic effect (resazurin cell viability assay) (Vero E6 cells [5]): no cytotoxic effect
